In the SangsterLogP compilation:

Test: method code SF-HPLC, from DOI: 10.1002/jps.2600840914, PMID: 8537890

| Structure (SMILES) | logP |
| --- | --- |
| S=c1cc(Cc2ccccc2)ss1 | 3.43 |
| CCCc1cssc1=S | 3.18 |
| CCCc1cssc1=O | 2.38 |
| Cc1cc(=O)ss1 | 1.26 |
| S=c1cc(-c2ccccc2)ss1 | 3.67 |
| CCCc1cc(=O)ss1 | 2.24 |
| COc1ccc(-c2cc(=S)ss2)cc1 | 3.82 |
| CCCCc1cssc1=S | 3.7 |
| Cc1ccc(-c2cc(=S)ss2)cc1 | 4.26 |
| CCCc1cc(=S)ss1 | 2.83 |
| Cc1ssc(=O)c1C | 1.73 |
| CCCCCc1cssc1=S | 4.06 |
| CCc1cssc1=S | 2.67 |
| S=c1ccss1 | 1.58 |
| CCc1cc(=O)ss1 | 1.69 |
| CCc1cc(=S)ss1 | 2.31 |
| COc1ccc(-c2ssc(=S)c2C)cc1 | 4.1 |
| S=c1sscc1-c1ccccc1 | 3.2 |
| Cc1ccc(-c2cssc2=S)cc1 | 3.73 |
| Cc1cssc1=O | 1.33 |

Next, values leading:

| logP | Structure (SMILES) |
| --- | --- |
| 2.95 | CCc1ssc(=S)c1C |
| 3.42 | CCCc1ssc(=S)c1C |
| 1.87 | Cc1cc(=S)ss1 |
| 2.18 | Cc1cssc1=S |
| 3.75 | S=c1ssc2c1CCCCCC2 |
| 3.95 | Cc1c(-c2ccccc2)ssc1=S |
| 3.17 | Cc1ssc(=S)c1-c1ccccc1 |
| 3.76 | CCCc1ssc(=S)c1CC |
| 3.78 | Cc1ssc(=S)c1Cc1ccccc1 |
| 3.39 | CCCc1c(C)ssc1=S |
| 2.45 | Cc1ssc(=S)c1C |
| 3.27 | S=c1ssc2c1CCCCC2 |
| 3.52 | CCc1ssc(=S)c1-c1ccccc1 |
| 2.94 | CCc1c(C)ssc1=S |
| 2.53 | S=c1ssc2c1CCC2 |
| 3.57 | S=c1ssc2ccccc12 |
| 3.51 | CCc1ssc(=S)c1CC |
